Assays:
Format in all cases: cell-based
STAT3 = molecular target: T1, STAT3 (Homo sapiens, UniProt P40763); experiment: STAT3 reporter gene (luciferase) assay in LNCaP stable cell line stimulated with IL-6; settings: LNCaP stable cell line (pSTAT3-TA-luc), IL-6 10 ng/mL, 24 hours
T1 construct: plasmid pSTAT3-TA-luc), which contains a stably operating STAT3 promoter; endogenous in cells
In short: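 LNCaP cells stably carrying pSTAT3-TA-luc, in RPMI1640 with 3% DCC-FBS, cultured 24 hours, then treated with compound at various concentrations plus IL-6 (final 10 ng/mL) for 24 hours at 37° C. Luciferase measured in lysates; parallel plate read for viability by CellTiter-Glo.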

STAT1 = molecular target: T2, STAT1 (Homo sapiens, UniProt P42224); experiment: STAT1 reporter gene (luciferase) assay in U2OS stable cell line stimulated with IFN-γ; settings: U2OS stable cell line (pGL4-STAT1-TA-luc), IFN-γ 50 ng/mL, 8 hours; read-out: IC50 (μM) pSTAT1
T2 construct: pGL4-STAT1-TA-luc), which contains a stably operating STAT1 promoter; endogenous in cells
T2 sequence (P42224 1-750): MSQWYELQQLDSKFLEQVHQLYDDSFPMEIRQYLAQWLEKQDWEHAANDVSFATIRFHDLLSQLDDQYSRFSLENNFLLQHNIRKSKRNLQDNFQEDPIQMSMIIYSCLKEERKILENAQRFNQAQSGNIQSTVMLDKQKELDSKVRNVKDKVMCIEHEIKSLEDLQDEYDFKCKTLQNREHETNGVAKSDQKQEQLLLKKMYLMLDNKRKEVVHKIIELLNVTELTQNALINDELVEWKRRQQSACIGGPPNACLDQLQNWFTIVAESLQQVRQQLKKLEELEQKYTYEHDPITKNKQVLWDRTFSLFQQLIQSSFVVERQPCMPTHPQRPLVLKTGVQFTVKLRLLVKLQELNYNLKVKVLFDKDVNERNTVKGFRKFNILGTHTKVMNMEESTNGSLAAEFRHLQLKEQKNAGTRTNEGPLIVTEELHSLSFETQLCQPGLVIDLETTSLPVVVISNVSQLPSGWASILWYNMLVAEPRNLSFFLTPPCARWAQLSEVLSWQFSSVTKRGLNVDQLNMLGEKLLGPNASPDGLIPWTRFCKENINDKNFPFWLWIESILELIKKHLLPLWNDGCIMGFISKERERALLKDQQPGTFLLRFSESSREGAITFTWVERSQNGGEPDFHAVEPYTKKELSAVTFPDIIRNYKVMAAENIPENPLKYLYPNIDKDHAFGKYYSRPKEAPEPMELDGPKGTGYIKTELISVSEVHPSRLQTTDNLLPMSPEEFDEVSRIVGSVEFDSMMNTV
Description: 1-2) Experiment on the Inhibition of STAT1 Activity
A human osteosarcoma cell line (U2OS stable cell line; pGL4-STAT1-TA-luc), which contains a stably operating STAT1 promoter, was cultured in McCoy 5′A medium (Cat No. 16600, Life Technologies) containing 10% FBS (Cat No. SH30396, Thermo Scientific) and 1000 μg/mL G418 solution (Cat No. 04 727 894 001, Roche). The reporter gene assay using U2OS stable cell line was performed in McCoy 5′A medium containing 10% FBS without G-418 solution. U2OS stable cells were plated in two (2) white 96-well plates with 25,000 cells/50 μL in each well. […] The plates were observed under microscope and drug precipitation and particular findings were investigated and recorded.
The luciferase assay and the cell viability assay were performed respectively with one of two plates. […] After shaking the plate for 30 minutes, luciferase activities of each well were measured in a PHERAstar™ microplate reader (BMG LABTECH) using a luciferase assay system (Cat No. E1501, Promega). For the cell viability assay, the 96-well plate was placed at room temperature for 30 minutes, added with 20 μL/well of CellTiter-Glo solution (Cat No. G7573, Promega), and shaken for 10 minutes in order to measure cytotoxicity caused by the compounds listed in Examples with a PHERAstar™ microplate reader (BMG LABTECH). […]

NCI-N87 = experiment: Cell growth inhibition assay (CellTiter-Glo), stomach cancer cell line NCI-N87; settings: NCI-N87 cells, 96 hours
In short: (§1)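 Cells seeded at 5,000/well (NCI-N87) or 10,000/well (MDA-MB-468) and exposed to serially diluted compounds for 96 h at 37 °C, NCI-N87 under 5% CO2 and MDA-MB-468 in air. Viability read by CellTiter-Glo luminescence; cell-free wells served as negative control and 0.1% DMSO wells as positive control.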

MDA-MB-468 = experiment: Cell growth inhibition assay (CellTiter-Glo), breast cancer cell line MDA-MB-468; settings: MDA-MB-468 cells, 96 hours
In short: as §1

T1 sequence (P40763 whole entry): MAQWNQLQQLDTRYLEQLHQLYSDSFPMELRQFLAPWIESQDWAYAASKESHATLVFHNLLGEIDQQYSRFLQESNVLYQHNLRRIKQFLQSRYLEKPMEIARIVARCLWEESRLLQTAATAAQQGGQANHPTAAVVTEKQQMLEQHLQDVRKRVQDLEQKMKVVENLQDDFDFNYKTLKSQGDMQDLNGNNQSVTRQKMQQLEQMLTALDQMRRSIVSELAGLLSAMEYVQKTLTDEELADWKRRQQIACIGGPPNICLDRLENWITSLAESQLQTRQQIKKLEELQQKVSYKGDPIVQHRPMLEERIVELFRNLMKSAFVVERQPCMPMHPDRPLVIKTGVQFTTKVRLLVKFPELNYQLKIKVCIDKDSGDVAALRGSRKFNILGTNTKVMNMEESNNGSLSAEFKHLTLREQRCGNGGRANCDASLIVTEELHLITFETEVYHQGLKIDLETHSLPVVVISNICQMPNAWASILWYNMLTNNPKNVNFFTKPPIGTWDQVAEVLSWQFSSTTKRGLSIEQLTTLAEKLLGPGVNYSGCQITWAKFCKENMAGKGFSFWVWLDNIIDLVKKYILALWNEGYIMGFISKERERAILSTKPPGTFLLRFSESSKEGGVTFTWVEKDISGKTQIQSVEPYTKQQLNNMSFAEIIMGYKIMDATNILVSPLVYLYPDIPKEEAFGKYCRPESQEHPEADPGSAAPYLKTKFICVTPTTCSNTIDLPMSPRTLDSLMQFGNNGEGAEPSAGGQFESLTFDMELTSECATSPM

Substance | IC50 (STAT3) | IC50 (STAT1) | IC50 (NCI-N87) | IC50 (MDA-MB-468)
N-(2-chloro-6-(5-chloro-2-methylphenoxy)pyridin-4-yl)-4-(methylsulfonyl)-3,4-dihydro-2H-thieno[3,2-g]chromene-7-carboxamide [Example 37] | 0.0062 µM | > 50 µM | 0.0095 µM | 0.0047 µM
tert-butyl 7-((2-chloro-6-(4-chlorophenoxy)pyridin-4-yl)carbamoyl)-1-(methylsulfonyl)-2,3-dihydrothieno[2,3-g]quinoxaline-4(1H)-carboxylate [Example 5] | 0.76 µM | > 50 µM | 0.72 µM | 
